Source: the supplement of paper PMC10307832

Columns and labels:
Assay in all cases: relative viability (nuclei count vs DMSO), 5 days (fraction); higher = more cells survive
[1] = compound: C1CNCCC1C2=CC(=NN2)C3=CC=NC=C3 + C[C@@H](Oc1cc(-c2cnn(C3CCNCC3)c2)cnc1N)c1c(Cl)ccc(F)c1Cl [Crizotinib] (partner 1 µM)
Summary of the method: (§1)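 Relative viability is defined as nuclei in treated wells over nuclei in vehicle wells. Duplicate plates were run and medians reported. Lung cancer cell lines in 1536-well plates were dosed by pin tool one day after seeding, with one drug or with a fixed anchor-drug dose plus five library-drug doses (not always all listed) in √10 steps, and nuclei were counted after 5 days.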

[2] = compound: C1CNCCC1C2=CC(=NN2)C3=CC=NC=C3 + Nc1ncn([C@H]2C[C@H](O)[C@@H](CO)O2)c(=O)n1 [Decitabine] (partner 2 µM)
Summary of the method: as §1

[3] = compound: C[C@@H](N)c1ccc(C(=O)Nc2ccnc3[nH]ccc23)cc1 + CCNC(=O)c1noc(-c2cc(C(C)C)c(O)cc2O)c1-c1ccc(CN2CCOCC2)cc1 [Luminespib] (partner 0.01 µM)
Summary of the method: as §1

Tanzisertib + Luminespib = compound: O[C@H]1CC[C@H](Nc2ncc3nc(Nc4c(F)cc(F)cc4F)n([C@H]4CCOC4)c3n2)CC1 [Tanzisertib] + CCNC(=O)c1noc(-c2cc(C(C)C)c(O)cc2O)c1-c1ccc(CN2CCOCC2)cc1 [Luminespib] (partner 0.01 µM)
Summary of the method: as §1

UMC-11 gave a relative viability ([1]; first compound 0.08 µM) of 0.69, a relative viability ([1]; first compound 0.8 µM) of 0.577 and a relative viability ([1]; first compound 2.53 µM) of 0.713. It also gave a relative viability ([1]; first compound 8 µM) of 0.63, a relative viability ([2]; first compound 0.08 µM) of 0.4 and a relative viability ([2]; first compound 0.8 µM) of 0.629. It also gave a relative viability ([2]; first compound 2.53 µM) of 0.697, a relative viability ([2]; first compound 8 µM) of 0.808 and a relative viability ([3]; first compound 0.04 µM) of 1.08. The relative viability ([3]; first compound 0.1265 µM) was 1.06, the relative viability ([3]; first compound 0.4 µM) was 1.04 and the relative viability ([3]; first compound 1.265 µM) was 0.989. For the same cell line, the relative viability ([3]; first compound 4 µM) was 0.826, the relative viability (Tanzisertib + Luminespib; first compound 0.08 µM) was 1.1 and the relative viability (Tanzisertib + Luminespib; first compound 0.253 µM) was 1. It also gave a relative viability (Tanzisertib + Luminespib; first compound 0.8 µM) of 0.946, a relative viability (Tanzisertib + Luminespib; first compound 2.53 µM) of 1.08 and a relative viability (Tanzisertib + Luminespib; first compound 8 µM) of 1.03.
